Here are results for 13 molecules from PubChem BioAssay AID248 (DTP/NCI, 2004).

In the assay the test system is L1210 leukemia ip in BDF1 mice, survival T/C. Description: NCI In Vivo Anticancer Drug Screen. Data for tumor model L1210 Leukemia (intraperitoneal) in B6D2F1 (BDF1) mice. The conditions noted are these: endpoint: mean survival time, higher = longer survival. The procedure, abridged:
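Survival endpoint. Drug-treated group vs vehicle group, expressed as T divided by C. Tumor passaged by transplantation.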

[1] abbreviates: dose: 100.0 mg/kg/injection, schedule: Q01DX001 (ip), vehicle: saline.
Where [2] appears, read: dose: 100.0 mg/kg/injection, schedule: Q01DX009 (ip), vehicle: saline.
[3] abbreviates: dose: 100.0 mg/kg/injection, schedule: Q04DX002 (ip), vehicle: saline.
Where [4] appears, read: dose: 100.0 mg/kg/injection, schedule: Q04DX003 (ip), vehicle: saline.
Setting [5] is: dose: 200.0 mg/kg/injection, schedule: Q01DX001 (ip), vehicle: saline.
Where [6] appears, read: dose: 200.0 mg/kg/injection, schedule: Q01DX009 (ip), vehicle: saline.
[7] abbreviates: dose: 200.0 mg/kg/injection, schedule: Q04DX002 (ip), vehicle: saline.
The mark [8] stands for this setting: dose: 200.0 mg/kg/injection, schedule: Q04DX003 (ip), vehicle: saline.
Where [9] appears, read: dose: 400.0 mg/kg/injection, schedule: Q01DX001 (ip), vehicle: saline.
Where [10] appears, read: dose: 400.0 mg/kg/injection, schedule: Q01DX009 (ip), vehicle: saline.
The mark [11] stands for this setting: dose: 400.0 mg/kg/injection, schedule: Q04DX002 (ip), vehicle: saline.
The mark [12] stands for this setting: dose: 10.0 mg/kg/injection, schedule: Q01DX001 (ip), vehicle: carboxymethylcellulose (CMC).
Setting [13] is: dose: 100.0 mg/kg/injection, schedule: Q04DX003 (ip), vehicle: Klucel (hydroxypropylcellulose) (HPC).
Where [14] appears, read: dose: 200.0 mg/kg/injection, schedule: Q04DX003 (ip), vehicle: Klucel (hydroxypropylcellulose) (HPC).
[15] abbreviates: dose: 400.0 mg/kg/injection, schedule: Q04DX003 (ip), vehicle: Klucel (hydroxypropylcellulose) (HPC).
Where [16] appears, read: dose: 100.0 mg/kg/injection, schedule: Q01DX009 (ip), vehicle: Klucel (hydroxypropylcellulose) (HPC).

Structures are written as SMILES. “And” between values parts separate entries of the source, which are not always exact repeats. Equal values may be shown once. Toxic doses and inconclusive results are not listed.

`OC(COc1ccc(Cl)cc1)COc1ccc(Cl)cc1`: the T/C was 95 % of control (dose: 100.0 mg/kg/injection, schedule: Q01DX001 (ip), vehicle: saline with Tween-80); 97 % of control (dose: 100.0 mg/kg/injection, schedule: Q01DX009 (ip), vehicle: saline with Tween-80); 98 % of control (dose: 100.0 mg/kg/injection, schedule: Q04DX003 (ip), vehicle: saline with Tween-80); 98 % of control (dose: 200.0 mg/kg/injection, schedule: Q01DX009 (ip), vehicle: saline with Tween-80); 103 % of control (dose: 200.0 mg/kg/injection, schedule: Q04DX003 (ip), vehicle: saline with Tween-80); 101 % of control (dose: 400.0 mg/kg/injection, schedule: Q01DX009 (ip), vehicle: saline with Tween-80). Further, the T/C (dose: 400.0 mg/kg/injection, schedule: Q04DX003 (ip), vehicle: saline with Tween-80) was 95 % of control.
Turning to `CCCC1(c2ccccc2)CC(=O)NC1=O` (configuration not stated), the T/C reads like this: under setting [1], 100 % of control; under setting [2], 106 % of control and 107 % of control; under setting [3], 100 % of control and 108 % of control; under setting [4], 103 % of control; under setting [5], 97 % of control; under setting [6], 117 % of control and 89 % of control. Also, the T/C is 105 % of control and 112 % of control under setting [7]; 97 % of control under setting [8]; 95 % of control under setting [9]; 98 % of control and 86 % of control under setting [10]; 105 % of control and 108 % of control under setting [11]; 97 % of control (dose: 400.0 mg/kg/injection, schedule: Q04DX003 (ip), vehicle: saline).
Turning to `Cc1cc(N(CCCl)CCCl)ccc1C=Nc1cc(Br)c(O)c(Br)c1`, the T/C runs as follows: (dose: 100.0 mg/kg/injection, schedule: Q01DX001 (ip), vehicle: carboxymethylcellulose (CMC)) 96 % of control; (dose: 200.0 mg/kg/injection, schedule: Q01DX001 (ip), vehicle: carboxymethylcellulose (CMC)) 94 % of control; (dose: 400.0 mg/kg/injection, schedule: Q01DX001 (ip), vehicle: carboxymethylcellulose (CMC)) 102 % of control.
As for `CC(O)C1CCCNC1` (configuration not stated), the T/C is 108 % of control under setting [4] and 97 % of control under setting [8].
Regarding `O=[N+]([O-])c1cc(S(=O)(=O)F)ccc1F`, the T/C was 97 % of control (dose: 0.07 mg/kg/injection, schedule: Q01DX009 (ip), vehicle: carboxymethylcellulose (CMC)); 100 % of control (dose: 0.15 mg/kg/injection, schedule: Q01DX009 (ip), vehicle: carboxymethylcellulose (CMC)); 100 % of control (dose: 0.31 mg/kg/injection, schedule: Q01DX009 (ip), vehicle: carboxymethylcellulose (CMC)); 92 % of control (dose: 0.31 mg/kg/injection, schedule: Q04DX003 (ip), vehicle: carboxymethylcellulose (CMC)); 103 % of control (dose: 0.46 mg/kg/injection, schedule: Q01DX009 (ip), vehicle: carboxymethylcellulose (CMC)); 92 % of control (dose: 0.62 mg/kg/injection, schedule: Q04DX003 (ip), vehicle: carboxymethylcellulose (CMC)). The T/C was 96 % of control (dose: 0.7 mg/kg/injection, schedule: Q01DX009 (ip), vehicle: carboxymethylcellulose (CMC)); 92 % of control (dose: 1.05 mg/kg/injection, schedule: Q01DX009 (ip), vehicle: carboxymethylcellulose (CMC)); 94 % of control (dose: 1.5 mg/kg/injection, schedule: Q01DX009 (ip), vehicle: other); 89 % of control (dose: 2.3 mg/kg/injection, schedule: Q01DX009 (ip), vehicle: other); 89 % of control (dose: 3.4 mg/kg/injection, schedule: Q01DX009 (ip), vehicle: other); 87 % of control (dose: 5.0 mg/kg/injection, schedule: Q01DX009 (ip), vehicle: other). Further, the T/C under setting [12] is 90 % of control.
As to `Cc1onc(-c2ccccc2Cl)c1C(=O)NCC(=O)O`, the T/C (dose: 100.0 mg/kg/injection, schedule: Q04DX002 (ip), vehicle: saline with Tween-80) was 104 % of control; the T/C (dose: 200.0 mg/kg/injection, schedule: Q04DX002 (ip), vehicle: saline with Tween-80) is 100 % of control; the T/C (dose: 400.0 mg/kg/injection, schedule: Q04DX002 (ip), vehicle: saline with Tween-80) is 100 % of control.
Consider `C[N+](C)(C)Cc1ccccc1/C(=N\O)c1ccccc1`, for which the T/C under setting [12] was 96 % of control and the T/C (dose: 20.0 mg/kg/injection, schedule: Q01DX001 (ip), vehicle: carboxymethylcellulose (CMC)) is 101 % of control.
For the molecule `O=C1CNCSC1`, the T/C was 102 % of control under setting [3], 115 % of control under setting [7] and 94 % of control under setting [11].
`Cc1cc(C)c2c(c1)-c1nc3c(cc1CC2)CCc1c(C)cc(C)cc1-3`: the T/C by setting is: under setting [13], 100 % of control; under setting [14], 95 % of control; under setting [15], 97 % of control.
On to `CC1=NCCc2cc3[nH]c4ccccc4c3cc21`, for which the T/C (dose: 25.0 mg/kg/injection, schedule: Q01DX009 (ip), vehicle: Klucel (hydroxypropylcellulose) (HPC)) is 102 % of control; the T/C (dose: 25.0 mg/kg/injection, schedule: Q04DX003 (ip), vehicle: Klucel (hydroxypropylcellulose) (HPC)) was 99 % of control; the T/C (dose: 50.0 mg/kg/injection, schedule: Q01DX009 (ip), vehicle: Klucel (hydroxypropylcellulose) (HPC)) is 96 % of control; the T/C (dose: 50.0 mg/kg/injection, schedule: Q04DX003 (ip), vehicle: Klucel (hydroxypropylcellulose) (HPC)) is 104 % of control; the T/C (dose: 100.0 mg/kg/injection, schedule: Q01DX001 (ip), vehicle: Klucel (hydroxypropylcellulose) (HPC)) was 94 % of control; the T/C under setting [16] is 94 % of control. Under setting [13], the T/C was 100 % of control.
`CC1CCNC(C(C)C)CC1` (configuration not stated): the T/C is 96 % of control under setting [3] and 115 % of control under setting [7].
On to `O=C(CCCl)N1CCN(C(=O)CCCl)CC1`, for which the T/C under setting [16] was 106 % of control; the T/C under setting [2] was 103 % of control; the T/C under setting [13] was 100 % of control; the T/C (dose: 117.32 mg/kg/injection, schedule: Q01DX009 (ip), vehicle: saline) was 119 % of control; the T/C (dose: 148.0 mg/kg/injection, schedule: Q01DX Z (ip), vehicle: methylcellulose (MC)) was 100 % of control; the T/C (dose: 176.0 mg/kg/injection, schedule: Q01DX009 (ip), vehicle: saline) is 100 % of control. The T/C (dose: 200.0 mg/kg/injection, schedule: Q01DX009 (ip), vehicle: Klucel (hydroxypropylcellulose) (HPC)) was 108 % of control; the T/C under setting [6] is 119 % of control; the T/C under setting [14] was 99 % of control; the T/C (dose: 222.0 mg/kg/injection, schedule: Q01DX Z (ip), vehicle: methylcellulose (MC)) was 104 % of control; the T/C (dose: 264.0 mg/kg/injection, schedule: Q01DX009 (ip), vehicle: saline) was 116 % of control; the T/C (dose: 333.0 mg/kg/injection, schedule: Q01DX Z (ip), vehicle: methylcellulose (MC)) was 119 % of control. In addition, the T/C (dose: 400.0 mg/kg/injection, schedule: Q01DX009 (ip), vehicle: Klucel (hydroxypropylcellulose) (HPC)) is 122 % of control; the T/C under setting [10] is 161 % of control and 167 % of control; the T/C under setting [15] is 121 % of control; the T/C (dose: 500.0 mg/kg/injection, schedule: Q01DX Z (ip), vehicle: methylcellulose (MC)) is 97 % of control; the T/C (dose: 800.0 mg/kg/injection, schedule: Q01DX009 (ip), vehicle: Klucel (hydroxypropylcellulose) (HPC)) was 155 % of control.
`Nc1nc(=O)n(C2CC(O)C(CO)O2)cc1Br` (configuration not stated): the T/C was 95 % of control (dose: 20.0 mg/kg/injection, schedule: Q01DX Z (ip), vehicle: carboxymethylcellulose (CMC)); 101 % of control (dose: 40.0 mg/kg/injection, schedule: Q01DX Z (ip), vehicle: carboxymethylcellulose (CMC)); 109 % of control (dose: 50.0 mg/kg/injection, schedule: Q01DX001 (ip), vehicle: saline); 101 % of control (dose: 80.0 mg/kg/injection, schedule: Q01DX Z (ip), vehicle: carboxymethylcellulose (CMC)); 105 % of control under setting [1]; 106 % of control (dose: 160.0 mg/kg/injection, schedule: Q01DX Z (ip), vehicle: carboxymethylcellulose (CMC)). Also, the T/C reads like this: under setting [5], 111 % of control; under setting [9], 117 % of control.
